Data set [1] can be described thus: Film morphology of agent in PLGA 85/15 film cast from anisole. It counts as physicochemical. Set-up: key: A—Amorphous; D—Dispersion; C—Crystalline.
The conditions of data set [2]: cited from earlier work.
Where [3] appears, read: 5% agent in PLGA 85/15 film cast from anisole.
Setting [4] is: 10% agent in PLGA 85/15 film cast from anisole.
Setting [5] is: 25% agent in PLGA 85/15 film cast from anisole.
Setting [6] is: 50% agent in PLGA 85/15 film cast from anisole.
Setting [7] is: 75% agent in PLGA 85/15 film cast from anisole.
Setting [8] is: 90% agent in PLGA 85/15 film cast from anisole.

Values after ≈ are worked out from the molar mass of the structure shown.

In the case of `Cc1cc(C(C)(C)C)c(O)c(C(C)(C)C)c1` [BHT, butylated hydroxy toluene], the “Film Morphology” value in data set [1] (setting [3]) is reported as “A”; in data set [1] (setting [4]) it was “A”; in data set [1] (setting [5]), “A”; in data set [1] (setting [6]), “D”; in data set [1] (setting [7]) it was “Mixed”; in data set [1] (setting [8]) it was “C”.

For the molecule `O=C(OCc1ccccc1)c1ccccc1` [Benzyl Benzoate], the “Film Morphology” value in data set [1] (setting [3]) and in data set [1] (setting [4]) was “A” each time.

Regarding `CCCCOC(=O)c1ccc(O)cc1` [Butyl 4-Hydroxybenzoate], the “Film Morphology” value was “A” in data set [1] (setting [3]); “A” in data set [1] (setting [4]); “A” in data set [1] (setting [5]); “C” in data set [1] (setting [6]); “C” in data set [1] (setting [7]); “C” in data set [1] (setting [8]).

In the case of `CC[C@@H]1/C=C(\C)C[C@H](C)C[C@H](OC)[C@H]2O[C@@](O)(C(=O)C(=O)N3CCCC[C@H]3C(=O)O[C@H](/C(C)=C/[C@@H]3CC[C@H](Cl)[C@H](OC)C3)[C@H](C)[C@@H](O)CC1=O)[C@H](C)C[C@@H]2OC` [Pimecrolimus, reference compound], the “Film Morphology” value in data set [1] (setting [4]) is on record as “A”; in data set [1] (setting [5]) it was “Mixed”; in data set [1] (setting [6]) it was “C”.

Regarding `CCCOC(=O)c1ccc(O)cc1` [Propyl 4-hydroxybenzoate], the “Film Morphology” value was “A” in data set [1] (setting [3]); “A” in data set [1] (setting [4]); “Mixed” in data set [1] (setting [5]); “C” in data set [1] (setting [6]); “C” in data set [1] (setting [7]); “C” in data set [1] (setting [8]).

On to `Nc1nc(Cl)nc2c1ncn2[C@H]1C[C@H](O)[C@@H](CO)O1` [cladribine], for which, in data set [2], the water solubility is 200 µg/mL (≈ 700 µM).

The record behind these values is patent US20070172509A1, “Drug Delivery System for Retarding Release of Water Soluble Drugs” (Conor Medsystems, Inc., priority 2006, published 2007).
